Data set [1] relates to macrophages on the intima of porcine venous graft. The experiment in a line: porcine vein graft model: macrophages on/in intima (anti-macrophage immunoperoxidase). The note with it: for A.Average Number of Macrophages on/in Intima* (400X objective) MAC-1 Staining, Left IJV Experimental: graft incubated 60 minutes in test solution before implantation, one animal per line. In kind it is in vivo. The method, then:
(§1) 6.4 The following experiments were performed to determine the ability of various compounds to preserve vein grafts before implantation in a porcine vein graft model. Briefly, the vein grafts were excised from the pig, incubated in solutions containing the various test compounds, implanted back into the pig and excised after a set period of days. The excised veins were then examined for a variety of factors to determine the protective effect of the various compounds.
Anti-macrophage antibody: An indirect immunoperoxidase procedure was performed. Slides were treated with Declere antigen retrieval solution for 15 minutes followed by one rinse in phosphate-buffered saline (PBS) ([0.15M NaCl, pH 7.2]+0.05% Tween 20). Endogenous peroxidase activity was quenched by incubation with the peroxidase solution supplied in the Dako EnVision+ kit followed by two rinses in PBS (0.15M NaCl, pH 7.2)+0.05% Tween 20. The slides were then incubated for 20 minutes in a nonspecific protein block solution comprising 1% BSA and 1.5% normal goat serum in PBS (0.15M NaCl, pH 7.2)+0.05% Tween 20 followed by incubation with primary antibody for 1 hour. After two PBS (0.15M NaCl, pH 7.2)+0.05% Tween 20 rinses, the slides were treated with the Dako EnVision+ peroxidase labeled polymer for 30 minutes. The slides were rinsed twice with PBS (0.15M NaCl, pH 7.2)+0.05% Tween 20 and treated with Dako substrate-chromogen solution for 8 minutes. The slides were then rinsed in tap water, counterstained with hematoxylin, and blued with lithium chloride. Finally, the slides were dehydrated in increasing concentrations of alcohol, cleared with xylene, and mounted for interpretation. PBS (0.15M NaCl, pH 7.2)+0.05% Tween 20+1% BSA served as the diluent for all antibodies. All rinses were performed with PBS (0.15M NaCl, pH 7.2) supplemented with 0.05% Tween 20.
For the anti-macrophage antibody, all slides were judged for adequacy of tissue elements and staining and read blind by the Study Pathologist to quantify the number of macrophages on the intima of the porcine venous graft tissues. The quantification was performed by counting at 400× the number of positively stained macrophages in and on the intima of each section of venous graft tissue in 10 fields and then taking the average number of macrophages per field for each section. A mean score among the four venous graft sections for each test group was calculated.
(§2) This study tested the ability of a variety of preservation solutions to retard chronic intimal hyperplasia and protect vein grafts from restenosis and obstruction in a porcine interpositional graft model. The markers of inflammation of interest in this study were CD31 (PECAM-1), CD54 (ICAM-1), and macrophages (L1 or Calprotectin) in formalin-fixed, paraffin-embedded porcine venous graft tissues. Specifically, a porcine internal jugular vein was end to side anastamosed to the ipsilateral carotid artery, following 60 minutes of incubation in heparinized saline (negative control), Phorbol Myristate Acetate (PMA) as positive control, or experimental solutions. In addition to the detection of macrophages with either L1 or Calprotectin antibodies, anti-CD31 was used to detect endothelial cells, and Movat's Trichrome stain, together with biomorphometry was used to measure the percent of intimal expansion. For detection of CD31, an anti-CD31 antibody was applied to formalin-fixed, paraffin-embedded porcine spleen at one dilution (1:50). This dilution of anti-CD-31 antibody had strong to intense staining of splenic endothelium (positive control material). In order to detect CD54, mouse antihuman CD54 antibody was applied at one concentration (50 μg/mL) to ICAM-1/CD54 ultraviolet light (UV) activated resin spot slides. There was strong to intense staining of the ICAM-1/CD54 UV activated resin spot slides with 50 μg/mL of anti-CD54 antibody. […]

Data set [2] deals with endothelium (CD31) of porcine venous graft. Kind of data set: porcine vein graft model: endothelialization score (CD31 staining). In kind it is in vivo. Particulars: for B.Endothelialization Score CD31 Staining, Left IJV Experimental: mean score on 0-5 scale, graft incubated 60 minutes in test solution before implantation, one animal per line; for endothelialization of treated venous graft compared to control contralateral venous graft: in words, based on slightly higher endothelialization scores. As to the method: as §1
Anti-CD31 antibody: An indirect immunoperoxidase procedure was performed. Slides were treated with Declere antigen retrieval solution for 15 minutes followed by two rinses in phosphate-buffered saline (PBS [0.15M NaCl, pH 7.2]+0.05% Tween 20). The slides were then treated with 3% hydrogen peroxide to block endogenous peroxidase activity. After two PBS (0.15M NaCl, pH 7.2)+0.05% Tween 20 rinses, the slides were incubated for 20 minutes in a nonspecific protein block comprising 1% BSA, 1.5% normal horse serum, and 5% milk in PBS (0.15M NaCl, pH 7.2)+0.05% Tween 20. The slides were then incubated with primary antibody for 2 hours at 37° C. followed by two PBS (0.15M NaCl, pH 7.2)+0.05% Tween 20 rinses. The biotinylated secondary antibody was then added and incubated for 30 minutes. After two rinses in PBS (0.15M NaCl, pH 7.2)+0.05% Tween 20, the slides were treated with ABC reagent for 30 minutes followed by two PBS (0.15M NaCl, pH 7.2)+0.05% Tween 20 rinses. The slides were incubated with stable DAB substrate for 6 minutes, rinsed in tap water, counterstained with hematoxylin, and blued with lithium chloride. Finally, all slides were dehydrated in increasing concentrations of alcohol, cleared with xylene, and mounted for interpretation. PBS (0.15M NaCl, pH 7.2)+0.05% Tween 20+1% BSA served as the diluent for the primary antibody and ABC reagent. The diluent for the secondary antibody also contained 1% milk. All rinses were performed with PBS (0.15M NaCl, pH 7.2) supplemented with 0.05% Tween 20.
For the anti-CD31 antibody, all slides were judged for adequacy of tissue elements and staining and read blind by the Study Pathologist to quantify the degree of endothelialization of each section of venous graft tissue using the following scale: 0=no endothelialization, 1=less than 25% endothelialization, 2=25-50% endothelialization, 3=51-75% endothelialization, 4=greater than 75% endothelialization, 5=complete endothelialization. A mean score among the four venous graft sections for each test group was calculated.
as §2

Data set [3] concerns porcine venous graft (intimal hyperplasia). The experiment in a line: porcine vein graft model: % neointimal expansion (histomorphometry, Movat's stain). In kind it is in vivo. The note with it: for C.% Neointimal Expansion Movat's Trichrome [100 * (neointima area/neointima area + lumen area], Left IJV Experimental: graft incubated 60 minutes in test solution before implantation, one animal per line; for % neointimal expansion (% NE) compared to contralateral venous graft and heparinized saline negative control: in words. As to the method:
as §1
All slides were also stained with hematoxylin and eosin (H&E) and Movat's Pentachrome stains in preparation for histomorphometry. Calculations based on morphometry measurements were made using Microsoft Excel® software. For histomorphometry, neointimal area, luminal area, and percentage of neointimal expansion (100×[neointimal area/neointimal area+luminal area) was calculated for each venous graft section and the mean for each vessel were calculated.
This study tested the ability of a variety of preservation solutions to retard chronic intimal hyperplasia and protect vein grafts from restenosis and obstruction in a porcine interpositional graft model. The markers of inflammation of interest in this study were CD31 (PECAM-1), CD54 (ICAM-1), and macrophages (L1 or Calprotectin) in formalin-fixed, paraffin-embedded porcine venous graft tissues. Specifically, a porcine internal jugular vein was end to side anastamosed to the ipsilateral carotid artery, following 60 minutes of incubation in heparinized saline (negative control), Phorbol Myristate Acetate (PMA) as positive control, or experimental solutions. In addition to the detection of macrophages with either L1 or Calprotectin antibodies, anti-CD31 was used to detect endothelial cells, and Movat's Trichrome stain, together with biomorphometry was used to measure the percent of intimal expansion. For detection of CD31, an anti-CD31 antibody was applied to formalin-fixed, paraffin-embedded porcine spleen at one dilution (1:50). This dilution of anti-CD-31 antibody had strong to intense staining of splenic endothelium (positive control material). In order to detect CD54, mouse antihuman CD54 antibody was applied at one concentration (50 μg/mL) to ICAM-1/CD54 ultraviolet light (UV) activated resin spot slides. There was strong to intense staining of the ICAM-1/CD54 UV activated resin spot slides with 50 μg/mL of anti-CD54 antibody. The detection of macrophages was performed by the application of one concentration (2 μg/mL) of mouse anti-human macrophages antibody to formalin-fixed, paraffin embedded porcine spleen. There was moderate staining of macrophages with 2 μg/mL of anti-macrophages antibody. […] All slides were also stained with hematoxylin and eosin (H&E) and Movat's Pentachrome stains in preparation for histomorphometry.

Data set [4] deals with jugular vein patch graft (neointimal hyperplasia). Kind of data set: murine autologous arterialized vein patch model: neointimal expansion of vein grafts. The note with it: vein patch preserved 2 hours at 25° C. in heparinized saline with additive (db-cAMP 2 mmol/L; 8-Br-cAMP 0.1 mmol/L; Rp-cAMPS 0.25 mmol/L), harvested postoperative day 21; mean ±SEM. In kind it is in vivo, C57BL/6J mice.

The test system of data set [5] is porcine venous graft. Kind of data set: porcine vein graft model: graft occlusion at explant. The note with it: graft incubated 60 minutes in test solution before implantation; one animal per line. Details: key: SO = substantially occluded. In kind it is in vivo. As to the method: as §1
This study tested the ability of a variety of preservation solutions to retard chronic intimal hyperplasia and protect vein grafts from restenosis and obstruction in a porcine interpositional graft model. The markers of inflammation of interest in this study were CD31 (PECAM-1), CD54 (ICAM-1), and macrophages (L1 or Calprotectin) in formalin-fixed, paraffin-embedded porcine venous graft tissues. Specifically, a porcine internal jugular vein was end to side anastamosed to the ipsilateral carotid artery, following 60 minutes of incubation in heparinized saline (negative control), Phorbol Myristate Acetate (PMA) as positive control, or experimental solutions. In addition to the detection of macrophages with either L1 or Calprotectin antibodies, anti-CD31 was used to detect endothelial cells, and Movat's Trichrome stain, together with biomorphometry was used to measure the percent of intimal expansion. […]

In data set [6] the test system is endothelial cells. The note with it: stated as known; cited from earlier work.
Data set [7] has as its system MAC-1+ leukocytes adhering to the endothelium of the vein patch. The experiment in a line: en face immunofluorescence: MAC-1+ leukocyte adhesion to vein patch. Type of data set: in vivo, C57BL/6J mice. The note with it: 2 hours of preservation with db-cAMP vs without additive; 24 hours after operation; P<0.05.

Values joined by “and” are separate entries in the source; they are usually repeats but may differ in a detail not shown here. Identical values can stand only once.

Regarding `CCCCCCCCCCCCCC(=O)O[C@@H]1[C@@H](C)[C@@]2(O)[C@@H](C=C(CO)C[C@]3(O)C(=O)C(C)=C[C@@H]23)[C@@H]2C(C)(C)[C@]12OC(C)=O` [PMA, Phorbol Myristate Acetate], the “A.Average Number of Macrophages on/in Intima* (400X objective) MAC-1 Staining, Left IJV Experimental” value (from here on “A.Average Number”) in data set [1] was 0 and 3.55. Moreover, the “B.Endothelialization Score CD31 Staining, Left IJV Experimental” value (shortened to “B.Endothelialization Score CD31 Staining”) in data set [2] is 4.5 and 5. For the same molecule, in data set [3], the “C.% Neointimal Expansion Movat's Trichrome [100 * (neointima area/neointima area + lumen area], Left IJV Experimental” value was 78.9% and 78.8%; the “% neointimal expansion (% NE) compared to contralateral venous graft and heparinized saline negative control” value is given as “slight increase”.

On to Lipopolysaccaride, for which the “A.Average Number” value in data set [1] was 1.575. The “B.Endothelialization Score CD31 Staining” value in data set [2] was found to be 4.75. Also, the “C.% Neointimal Expansion Movat's Trichrome [100 * (neointima area/neointima area + lumen area], Left IJV Experimental” value in data set [3] is 77.7%.

As to `Nc1ncnc2c1nc(Br)n2[C@@H]1O[C@@H]2COP(=O)(O)O[C@H]2[C@H]1O` [8-Br-cAMP, 8-bromo-adenosine 3′,5′-cyclic monophosphate], the neointimal expansion in data set [4] is given as 44.3%±5.0%.

For the molecule Enbrel, the “graft status printed in place of a value (Left IJV Experimental)” value in data set [5] is listed as “SO”.

For the molecule `O=C1CCC(N2C(=O)c3ccccc3C2=O)C(=O)N1` (centres unmarked) [Thalidomide], the “A.Average Number” value in data set [1] was 1.15 and 1.45. Further, the “B.Endothelialization Score CD31 Staining” value in data set [2] is 4.75 and 4.5. In addition, in data set [3], the “C.% Neointimal Expansion Movat's Trichrome [100 * (neointima area/neointima area + lumen area], Left IJV Experimental” value was 78.2% and 80.0%.

Consider `Cc1[nH]c(=O)c(C#N)cc1-c1ccncc1` [Milrinone (PDSIII), Milrinone], for which, in data set [5], the “graft status printed in place of a value (Left IJV Experimental)” value was “SO”. For the same molecule, the “A.Average Number” value in data set [1] was 0. Also, in data set [2], the “endothelialization of treated venous graft compared to control contralateral venous graft” value is reported as “better endothelialization” and the “B.Endothelialization Score CD31 Staining” value worked out at 5. The “C.% Neointimal Expansion Movat's Trichrome [100 * (neointima area/neointima area + lumen area], Left IJV Experimental” value in data set [3] is on record as 70.4%.

As for `CCCC(=O)Nc1ncnc2c1ncn2[C@@H]1O[C@@H]2COP(=O)(O)O[C@H]2[C@H]1OC(=O)CCC` [db-cAMP, N^6,2′-O-dibutyryl adenosine 3′,5′-cyclic monophosphate], in data set [1], the “A.Average Number” value is reported as 0.025. Further, the “macrophage scores of treated venous graft compared to contralateral venous graft” value in data set [1] (in words) is listed as “decreases”. In data set [2], the “endothelialization of treated venous graft compared to control contralateral venous graft” value is given as “better endothelialization” and the “B.Endothelialization Score CD31 Staining” value turned out to be 5. Also, the neointimal expansion in data set [4] is reported as 51.0%±4.7%. Moreover, in data set [3], the “C.% Neointimal Expansion Movat's Trichrome [100 * (neointima area/neointima area + lumen area], Left IJV Experimental” value is listed as 55.6%; the “% neointimal expansion (% NE) compared to contralateral venous graft and heparinized saline negative control” value is “large and significant increase”. Moreover, the “db cAMP concentrations that become toxic to endothelial cells” value in data set [6] is “higher than 4 mM”. Besides, the “MAC-1+ cells adhered to the surface of vein patch” value in data set [7] is reported as “markedly decreased”.

Source of the values: patent publication US20060134073A1, “Compositions and methods for ex vivo preservation of blood vessels for vascular grafts using analogues of cAMP and cGMP” (priority 2004, published 2006).
